Test results as given in US20200002377A1, “COMPOUNDS USEFUL FOR THE TREATMENT AND/OR CARE OF THE SKIN, HAIR, NAILS AND/OR MUCOUS MEMBRANES” (LUBRIZOL ADVANCED MATERIALS, INC., priority 2016, published 2020).

Legend:
[1] = test system: stratum corneum barrier in reconstructed human epidermis (RHE); assay: Toluidine blue diffusion assay in RHE with SDS; format: cell-based; set-up: key: 4: Strong; 3: Clear; 2: Moderate; 1: Slight; details: 24 h, SDS 0.02 mg/ml on top layer, peptide 50 μg/ml + SDS
Description: The SkinEthic human tissue models (EpiSkin) are removed from their agarose-nutrient solution in the multiwell plate immediately after arrival and are placed in a 6-well plate in which each well has previously been filled with SkinEthic Growth Medium (EpiSkin). After overnight incubation at 37° C., 5% CO2, the top layer of tissue model is treated with 100 μl of a 50 μg/ml solution of peptide Ac-Glu-Glu-Met-Gln-Arg-Arg-Ala-NH2 (PEP-2) in a 0.02 mg/ml sodium dodecyl sulfate (SDS, Sigma) solution in growth medium and dermal side of tissue model is treated with 1 ml of a 50 μg/ml solution of the same peptide in growth medium. The top layer and dermal side of a tissue model is treated with growth medium as basal condition. In another tissue model, its top layer is treated with a 0.02 mg/ml SDS solution in growth medium while its dermal side is treated with growth medium alone, both in absence of peptide, for its use as a positive control. All incubations are performed at 37° C. and 5% CO2 for 24 h.
After the 24-hours treatment, the top layer of tissue models are further treated with 200 μl of methanol for 2 min at room temperature and, after that, they are rinsed twice with 200 μl of phosphate-buffered saline (PBS, Sigma). […] At least 12 representative images from each condition are collected and scored according to the ranking described in Table 14. […]

[2] = test system: tight junction (TJ) barrier in reconstructed human epidermis (RHE); assay: TJ permeability assay, biotin dye penetration in RHE with SDS; format: cell-based; details: 24 hours
Description: TJ permeability assay using surface biotinylation technique was performed in incubated reconstructed human epidermis (RHE) with EZ-UN Sulfo-NHS-LC-LC-Biotin from the dermal side. The aim of this study is to investigate the ability of peptides of the invention to enhance the barrier function by inhibiting diffusion of the dye through stratum granulosum in presence of sodium dodecyl sulfate (SDS) which causes functional deterioration of TJs.
SkinEthic human tissue models (EpiSkin) are removed from their agarose-nutrient solution in a multiwell plate immediately after arrival and are placed in a 6-well plate in which each well has previously been filled with SkinEthic Growth Medium (EpiSkin). After overnight incubation at 37° C., 5% CO2, tissue models are treated with 50 μg/ml of peptide Ac-Glu-Glu-Met-Gln-Arg-Arg-Ala-NH2 (PEP-2) and a 0.02 mg/ml sodium dodecyl sulfate (SDS, Sigma) solution in growth medium, (1 ml/well). […]
Microscopical observations are performed with a Zeiss fluorescence microscope and photographs of each condition are taken with the associated camera. Fluorescence images of biotin are quantified as the product of its area and the intensity mean value of channel ‘EGFP’ Green (excitation: 488 nm and emission: 509 nm) and normalized by basal conditions. At least 12 representative images from each condition are collected and analyzed with the ZEN software (Zeiss). […]

[3] = test system: Nuclear Factor Kappa B subunit 1 (NFKB1); assay: Innate immune response gene expression in HEKa, real time PCR array; format: cell-based, human; details: 50 μg/ml, 24 h
Description: (§1) HEKa cells (Life Technologies) are seeded at 6.0×10^5 cells/well in 6-well plates and incubated in culture medium Epillfe™ with defined Growth Supplement (EDGS, Life Technologies), at 37° C. in a water-saturated atmosphere of 95% air and 5% CO2. After 24 hours of incubation under these conditions, medium is removed and cells are incubated with 50 μg/ml (w/v) of a peptide of the invention (see Table 16) in fresh culture medium keeping two wells where HEKa cells are incubated with medium only (basal conditions) at 37° C. and 5% CO2.
After 24 h of incubation, the cells are lysed directly in the wells following the protocol described on the RNeasy™ Mini kit (Qiagen) according to the manufacturer's protocol. The lysed cells are homogenized and the RNases are inactivated. The genomic DNA is removed from the samples by using gDNA Eliminator spin columns (Qiagen). Then the samples are passed through special RNA binding columns (Qiagen) and, after several microcentrifugation washes to eliminate contaminants and impurities, the purified RNA is eluted with 50 μl of ultrapure water. Quantification and analysis of purity of RNA samples are performed after RNA elution with a biophotometer (Eppendorf). 1 μg of high-quality RNA is retrotranscribed with iScript™ advanced (BioRad) in a final volume of 20 μl·Complete reaction mix is incubated in a thermal cycler (Eppendorf) at 42° C. for 30 minutes, and the reactions are stopped at 85° C. for 5 minutes. Complementary DNA is amplified by qPCR in a real-time PCR thermocycler (BioRad) using SYBR®Green supermix (BioRad) and a customized plate for use with SYBR®Green (BioRad). SYBR®Green binds to double-stranded DNA molecules and emits fluorescence which is quantified and is proportional to the amount of the product in the PCR reaction. Cycling conditions in BioRad CFX96™ instrument are 95° C. for 3 minutes, followed by 40 cycles of denaturing at 95° C. for 5 seconds, annealing and elongation at 60° C. for 30 seconds. GAPDH (Glyceraldehyde 3-phosphate dehydrogenase), TBP (TATA box binding protein) and HRPT1 (hypoxanthine phosphoribosyltransferase 1) are used as endogenous controls. Fold change relative to the expression of the sample genes and reference genes is calculated using normalized expression (ΔΔ(Ct)) method with default threshold values using CFX Manager Software (BioRad).
(§2) Genes analyzed are Chemokine (C-C motif) Ligand 5 (CCL5), Myeloid Differentiation primary response gene 88 (MyD88), Nuclear Factor Kappa B subunit 1 (NFKB1) and interferon Regulatory Factor 3 (IRF3).

[4] = test system: Staphylococcus epidermidis; assay: Adherence of Staphylococcus epidermidis in keratinocytes (HaCaT) in competition with S. aureus bioparticles; format: cell-based; details: 50 μg/ml, 24 h, basal = 0
Description: After that treatment, cells are washed with phosphate-buffered saline (PBS, Sigma) and are then incubated with a solution of Staphylococcus epidermidis (ATCC®12228™, Culture Collections) treated with green-fluorescence calcein AM (Life technologic) and Alexa Fluor 594™ Bioparticles Staphylococcus aureus (ThermoFisher) in PBS for 30 minutes at 37° C. and protected from light. At the end of the incubation period, cells are washed with PBS and fixed in 4% (v/v) paraformaldehyde (PFA, Sigma) for 30 minutes. After rinsing with PBS, the nuclei are stained with Hoechst 33342, trihydrochloride trihydrate (ThermoFisher) in PBS for 10 minutes before analysis.
Cellular imaging is performed by fluorescence microscopy using the Operetta® High Content Imaging System (PerkinElmer). From each fluorescence image, Staphylococcus epidermidis is quantified as a number of spots and normalized against the number of keratinocyte nuclei and the total bacteria number (understood as the addition of detected S. epidermidis spots and S. aureus bioparticles). Each value obtained is normalized respect to basal conditions (non-treated keratinocytes). An image is taken in three different fields per well. 12 representative images from each condition are analyzed with Harmony software (PerkinElmer).
The normalized percentage of Staphylococcus epidermidis respect to basal conditions in treated keratinocytes is represented in Table 17.

Claudin 1 (CLDN1) = assay: Tight junction gene expression in HEKa, real time PCR array; details: 50 μg/ml, 24 hours
Description: (§3) HEKa cells (Life Technologies) are seeded at 6.0×10^5 cells/well in 6-well plates and incubated in culture medium Epilife™ with defined Growth Supplement (EDGS, Life Technologies) at 37° C. in a water-saturated atmosphere of 95% air and 5% CO2. After 24 hours of incubation under these conditions, medium is removed and cells are incubated with 50 μg/ml of a peptide of the invention (see Table 12) in fresh culture medium, except for two wells where HEKa cells are incubated with medium only (basal conditions), at 37° C. and 5% CO2.
(§4) After 24 hours of incubation, the cells are lysed directly in the wells following the protocol described on the RNeasy™ Mini kit (Qiagen) according to the manufacturer's protocol. The lysed cells are homogenized and the Rnases are inactivated. The genomic DNA is removed from the samples by using gDNA Eliminator spin columns (Qiagen). […] Quantification and analysis of purity of RNA samples are performed after RNA elution with a biophotometer (Eppendorf). […] SYBR Green binds to double-stranded DNA molecules and emits fluorescence which is quantified and is proportional to the amount of the product in the PCR reaction. […] Fold change relative to the expression of the sample genes and reference genes is calculated using normalized expression (ΔΔ(Ct)) method with default threshold values using CFX Manager Software (BioRad).

[5] = test system: Reconstructed Human Epidermis (RHE); assay: Lipidomic profile (UPLC-MS) of in vitro epidermal model; format: cell-based; details: 50 μg/ml, 24 hours, vs basal conditions
Description: The SkinEthic human tissue models (EpiSkin™) are removed from their agarose-nutrient solution in the multiwell plate immediately after arrival and are placed in a 6-well plate in which each well has previously been filled with SkinEthic Growth Medium (EpiSkin™). After overnight incubation at 37° C., 5% CO2, Reconstructed Human Epidermis (RHE) are treated with 50 μg/ml of peptides Ac-Glu-Glu-Met-Gln-Arg-Arg-NH2 (PEP-1), Ac-Glu-Glu-Met-Gln-Arg-Arg-Ala-NH2 (PEP-2) or Ac-Glu-Glu-Met-Gln-Arg-Arg-Ala-Asp-NH2 (PEP-3) or medium (basal conditions) for 24 hours at 37° C. and 5% CO2. After the 24 hours treatment, RHE are frozen and stored at −20° C. Each treatment is applied to five RHE per condition.
Epidermal membrane model samples are thawed and removed from the inserts using a scalpel and transferred to homogenization tubes. Samples are mixed with sodium chloride (50 mM) and chloroform/methanol (2/1) (v:v) and homogenized. The extraction solvent is spiked with metabolites not detected in unspiked human serum extracts. After homogenizing the samples, extracts are incubated for 1 hour at −20° C. and centrifuged at 18,000×g for 15 minutes. The organic phase is then collected and dried under vacuum. Dried extracts are finally reconstituted in acetonitrile/isopropanol (1/1) (v:v), centrifuged at 18,000×g for 5 minutes and transferred to vials for UPLCs-MS analysis.
All data are processed using the TargetLynx™ application manager for MassLynx™ 4.1 software (Waters Corp., Milford, USA). A set of predefined retention time, mass-to-charge ratio pairs, Rt-m/z, corresponding to metabolites included in the analysis are fed into the program. Associated extracted ion chromatograms (mass tolerance window=0.05 Da) are then peak-detected and noise-reduced in both the LC and MS domains such that only true metabolite related features are processed by the software. A list of chromatographic peak areas is then generated for each sample injection and value respect to basal conditions is calculated.
Average of five values obtained for each peptide in relation to those obtained for basal conditions (without peptide in the medium) are shown in Table 11.

[6] = test system: Tight Junction Protein 1 (TJP1); assay: Tight junction gene expression in HEKa, real time PCR array; details: 50 μg/ml, 24 hours
Description: as §3, §4

[7] = test system: interferon Regulatory Factor 3 (IRF3); assay: Innate immune response gene expression in HEKa, real time PCR array; details: 50 μg/ml, 24 h
Description: as §1
After 24 h of incubation, the cells are lysed directly in the wells following the protocol described on the RNeasy™ Mini kit (Qiagen) according to the manufacturer's protocol. […] Quantification and analysis of purity of RNA samples are performed after RNA elution with a biophotometer (Eppendorf). […] SYBR®Green binds to double-stranded DNA molecules and emits fluorescence which is quantified and is proportional to the amount of the product in the PCR reaction. […] Fold change relative to the expression of the sample genes and reference genes is calculated using normalized expression (ΔΔ(Ct)) method with default threshold values using CFX Manager Software (BioRad).
as §2

Compound: CCCCCCCCCCCCOS(=O)(=O)[O-].[Na+] [SDS, sodium dodecyl sulfate, reference compound]
- Total score (Toluidine Blue staining) [1]: 4
- Fold change with respect to basal condition (biotin fluorescence) ([2]; treatment from dermal side): 1.90

Compound: Ac-EEMQRKAD-NH2 [PEP-14, Ac-Glu-Glu-Met-Gln-Arg-Lys-Ala-Asp-NH2]
- NFKB1 fold induction respect to basal conditions [3]: 2.59
- S. epidermidis (%), normalized percentage respect to basal conditions [4]: 22.18%
- CLDN1 fold induction respect to basal conditions (Claudin 1 (CLDN1)): 2.59

Compound: Ac-EEMQRR-NH2 [PEP-1, Ac-Glu-Glu-Met-Gln-Arg-Arg-NH2]
- NFKB1 fold induction respect to basal conditions [3]: 2.59
- S. epidermidis (%), normalized percentage respect to basal conditions [4]: 13.63. %
- Cer_AP48 N-(alpha-hydroxyacyl) phytosphingosines [5]: 1.21 fold change
- Cer_NP48 N-acyl phytosphingosines [5]: 1.21 fold change
- Cer_NP49 N-acyl phytosphingosines [5]: 1.17 fold change
- Cer_NP50 N-acyl phytosphingosines [5]: 1.18 fold change
- Cer_NP51 N-acyl phytosphingosines [5]: 1.44 fold change
- Cer_NS50 N-acyl sphingosines [5]: 1.20 fold change
- Cer_NS51 N-acyl sphingosines [5]: 1.14 fold change
- Cer_NS52 N-acyl sphingosines [5]: 1.35 fold change
- Cer_NdS47 N-acyl dihydrosphingosines [5]: 1.14 fold change
- Cer_NdS48 N-acyl dihydrosphingosines [5]: 1.21 fold change
- Cer_NdS49 N-acyl dihydrosphingosines [5]: 1.38 fold change
- Cer_NdS50 N-acyl dihydrosphingosines [5]: 1.42 fold change

Compound: Ac-EEMQRR-OH [PEP-61, Ac-Glu-Glu-Met-Gln-Arg-Arg-OH]
- NFKB1 fold induction respect to basal conditions [3]: 1.71
- S. epidermidis (%), normalized percentage respect to basal conditions [4]: 3.08%
- TJP1 fold induction respect to basal conditions [6]: 1.71

Compound: Ac-EEMQRRA-NH2 [PEP-2, Ac-Glu-Glu-Met-Gln-Arg-Arg-Ala-NH2]
- NFKB1 fold induction respect to basal conditions [3]: 2.19
- S. epidermidis (%), normalized percentage respect to basal conditions [4]: 24.69%
- Total score (Toluidine Blue staining) [1]: 2
- Cer_AP48 N-(alpha-hydroxyacyl) phytosphingosines [5]: 1.37 fold change
- Cer_NP48 N-acyl phytosphingosines [5]: 1.24 fold change
- Cer_NP49 N-acyl phytosphingosines [5]: 1.23 fold change
- Cer_NP50 N-acyl phytosphingosines [5]: 1.23 fold change
- Cer_NP51 N-acyl phytosphingosines [5]: 1.19 fold change
- Cer_NS50 N-acyl sphingosines [5]: 1.18 fold change
- Cer_NS51 N-acyl sphingosines [5]: 1.13 fold change
- Cer_NS52 N-acyl sphingosines [5]: 1.37 fold change
- Cer_NdS47 N-acyl dihydrosphingosines [5]: 1.10 fold change
- Cer_NdS48 N-acyl dihydrosphingosines [5]: 1.23 fold change
- Cer_NdS49 N-acyl dihydrosphingosines [5]: 1.46 fold change
- Cer_NdS50 N-acyl dihydrosphingosines [5]: 1.50 fold change
- penetration of biotin to stratum corneum (result in words) ([2]; peptide 50 μg/ml with 0.02 mg/ml SDS): able to strengthen the tight junction (TJ) barrier

Compound: Ac-EEMQRRAD-NH2 [PEP-3, Ac-Glu-Glu-Met-Gln-Arg-Arg-Ala-Asp-NH2]
- NFKB1 fold induction respect to basal conditions [3]: 2.04
- S. epidermidis (%), normalized percentage respect to basal conditions [4]: 11.46%
- Cer_AP48 N-(alpha-hydroxyacyl) phytosphingosines [5]: 1.15 fold change
- Cer_NP48 N-acyl phytosphingosines [5]: 1.19 fold change
- Cer_NP49 N-acyl phytosphingosines [5]: 1.14 fold change
- Cer_NP50 N-acyl phytosphingosines [5]: 1.30 fold change
- Cer_NP51 N-acyl phytosphingosines [5]: 1.24 fold change
- Cer_NS50 N-acyl sphingosines [5]: 1.14 fold change
- Cer_NS51 N-acyl sphingosines [5]: 1.10 fold change
- Cer_NS52 N-acyl sphingosines [5]: 1.30 fold change
- Cer_NdS47 N-acyl dihydrosphingosines [5]: 1.20 fold change
- Cer_NdS48 N-acyl dihydrosphingosines [5]: 1.34 fold change
- Cer_NdS49 N-acyl dihydrosphingosines [5]: 1.43 fold change
- Cer_NdS50 N-acyl dihydrosphingosines [5]: 1.68 fold change

Compound: Ac-EEMQRRED-NH2 [PEP-23, Ac-Glu-Glu-Met-Gln-Arg-Arg-Glu-Asp-NH2]
- NFKB1 fold induction respect to basal conditions [3]: 2.58
- S. epidermidis (%), normalized percentage respect to basal conditions [4]: 20.10%
- CLDN1 fold induction respect to basal conditions (Claudin 1 (CLDN1)): 2.58

Compound: Ac-EQMQRR-NH2 [PEP-50, Ac-Glu-Gln-Met-Gln-Arg-Arg-NH2]
- NFKB1 fold induction respect to basal conditions [3]: 2.25
- S. epidermidis (%), normalized percentage respect to basal conditions [4]: 4.14%
- IRF3 fold induction respect to basal conditions [7]: 2.25

Compound: H-EEMQRH-NH2 [PEP-57, H-Glu-Glu-Met-Gln-Arg-His-NH2]
- NFKB1 fold induction respect to basal conditions [3]: 2.49
- S. epidermidis (%), normalized percentage respect to basal conditions [4]: 13.57%
- IRF3 fold induction respect to basal conditions [7]: 2.49
